Where two headings read alike, the source gives them in different places.
Target: T1, human DP2 (Homo sapiens, UniProt Q9Y5Y4)
T1 construct: expressed in transfected cells; membranes prepared
T1 sequence (Q9Y5Y4 1-395): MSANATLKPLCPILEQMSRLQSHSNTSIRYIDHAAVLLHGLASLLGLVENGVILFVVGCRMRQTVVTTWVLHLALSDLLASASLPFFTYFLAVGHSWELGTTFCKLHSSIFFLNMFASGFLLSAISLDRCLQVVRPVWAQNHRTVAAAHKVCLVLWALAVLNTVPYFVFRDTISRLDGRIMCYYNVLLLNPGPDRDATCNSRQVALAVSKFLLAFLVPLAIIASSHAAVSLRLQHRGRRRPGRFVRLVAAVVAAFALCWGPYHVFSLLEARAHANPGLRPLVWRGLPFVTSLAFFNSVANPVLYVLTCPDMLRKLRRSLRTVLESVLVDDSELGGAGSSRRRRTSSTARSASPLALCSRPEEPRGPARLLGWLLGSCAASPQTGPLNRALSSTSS
Assay: DP-2 binding inhibition assay (3H-PGD2, membranes of DP2-expressing K562 cells)
Procedure, shortened: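 Displacement of 3H-PGD2 was measured by filtration and scintillation counting after 60 min at room temperature, using membranes of DP2-transfected K562 cells in 0.1% BSA, 1% HSA or 4% HSA.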

[1] = 4% HSA, read-out: EC50 (nM) 4% HSA

Compound | EC50 [1] [nM] | EC50 (0.1% BSA, read-out: EC50 (nM) 0.1% BSA) [nM]
O=C(Nc1cc(-c2cccc(Cl)c2)ccn1)c1ccc(Oc2cc3c(cc2Cl)C(C(=O)O)CCO3)cc1 (centres unmarked) [Example 121, 6-Chloro-7-(4-(4-(3-chlorophenyl)pyridin-2-ylcarbamoyl)phenoxy)chroman-4-carboxylic acid] | 1890 | –
O=C(Nc1ccc(-c2cccc(C(F)(F)F)c2)nn1)c1ccc(Oc2cc3c(cc2Cl)C(C(=O)O)CCO3)cc1 (centres unmarked) [Example 99, Sodium 6-chloro-7-(4-(6-(3-(trifluoromethyl)phenyl)pyridazin-3-ylcarbamoyl)phenoxy)chroman-4-carboxylate] | 235 | –
COc1ccc(-c2ccc(NC(=O)c3ccc(Oc4cc5c(cc4Cl)C(C(=O)O)CCO5)cc3)nc2)cn1 (centres unmarked) [Example 73, Sodium 6-chloro-7-(4-(6′-methoxy-3,3′-bipyridin-6-ylcarbamoyl)phenoxy)chroman-4-carboxylate] | 959 | –
CSc1ccc(-c2cccc(NC(=O)c3ccc(Oc4cc5c(cc4Cl)C(C(=O)O)CCO5)cc3)n2)cc1 (centres unmarked) [Example 83, 6-Chloro-7-(4-(6-(4-(methylthio)phenyl)pyridin-2-ylcarbamoyl)phenoxy)chroman-4-carboxylic acid] | 71.3 | –
O=C(Nc1cnn(-c2cccc(Cl)c2)c1)c1ccc(Oc2cc3c(cc2Cl)C(C(=O)O)CCO3)cc1 (centres unmarked) [Example 164, Sodium 6-chloro-7-(4-(1-(3-chlorophenyl)-1H-pyrazol-4-ylcarbamoyl)phenoxy)chroman-4-carboxylate] | 143 | –
O=C(Nc1ccn(-c2ccc(F)c(Cl)c2)n1)c1ccc(Oc2cc3c(cc2Cl)C(C(=O)O)CCO3)cc1 (centres unmarked) [Example 167, 6-chloro-7-(4-(1-(3-chloro-4-fluorophenyl)-1H-pyrazol-3-ylcarbamoyl)phenoxy)chroman-4-carboxylic acid] | 46.8 | –
O=C(NCCc1ncc(Cl)cc1Cl)c1ccc(Oc2cc3c(cc2Cl)C(C(=O)O)CCO3)cc1 (centres unmarked) [Example 138, Sodium 6-chloro-7-(4-(2-(3,5-dichloropyridin-2-yl)ethylcarbamoyl)phenoxy)chroman-4-carboxylate] | 687 | –
O=C(Nc1cccc(-c2cccc(F)c2F)n1)c1ccc(Oc2cc3c(cc2Cl)C(C(=O)O)CCO3)cc1 (centres unmarked) [Example 90, 6-chloro-7-(4-(6-(2,3-difluorophenyl)pyridin-2-ylcarbamoyl)phenoxy)chroman-4-carboxylic acid] | 166 | –
O=C(NCCc1cccc(-c2ccccc2Cl)n1)c1ccc(Oc2cc3c(cc2Cl)C(C(=O)O)CCO3)cc1 (centres unmarked) [Example 221, 6-chloro-7-(4-(2-(6-(2-chlorophenyl)pyridin-2-yl)ethylcarbamoyl)phenoxy) chroman-4-carboxylic acid] | 962 | –
O=C(NCCn1ccc(Cl)cc1=O)c1ccc(Oc2cc3c(cc2Cl)C(C(=O)O)CCO3)cc1 (centres unmarked) [Example 216, 6-chloro-7-(4-(2-(4-chloro-2-oxopyridin-1(2H)-yl)ethylcarbamoyl)phenoxy)chroman-4-carboxylic acid] | 2230 | –
Cc1ccc(-c2cccc(NC(=O)c3ccc(Oc4cc5c(cc4Cl)C(C(=O)O)CCO5)cc3)n2)cc1F (centres unmarked) [Example 88, 6-Chloro-7-(4-(6-(3-fluoro-4-methylphenyl)pyridin-2-ylcarbamoyl)phenoxy)chroman-4-carboxylic acid] | 55.5 | –
Cc1cc(-c2cccc(NC(=O)c3ccc(Oc4cc5c(cc4Cl)C(C(=O)O)CCO5)cc3)n2)ccc1F (centres unmarked) [Example 84, 6-Chloro-7-(4-(6-(4-fluoro-3-methylphenyl)pyridin-2-ylcarbamoyl)phenoxy)chroman-4-carboxylic acid] | 144 | –
O=C(Nc1ccn(-c2cccc(Cl)c2F)n1)c1ccc(Oc2cc3c(cc2Cl)C(C(=O)O)CCO3)cc1 (centres unmarked) [Example 169, 6-chloro-7-(4-(1-(3-chloro-2-fluorophenyl)-1H-pyrazol-3-ylcarbamoyl)phenoxy)chroman-4-carboxylic acid] | 76 | –
CN(C)c1ncccc1CCNC(=O)c1ccc(Oc2cc3c(cc2Cl)C(C(=O)O)CCO3)cc1 (centres unmarked) [Example 225, 6-chloro-7-(4-(2-(2-(dimethylamino)pyridin-3-yl)ethylcarbamoyl)phenoxy) chroman-4-carboxylic acid] | 664 | –
COc1ccc(-c2ccc(NC(=O)c3ccc(Oc4cc5c(cc4Cl)C(C(=O)O)CCO5)cc3)nn2)cc1 (centres unmarked) [Example 63, Sodium 6-chloro-7-(4-(6-(4-methoxyphenyl)pyridazin-3-ylcarbamoyl)phenoxy)chroman-4-carboxylate] | 1460 | –
O=C(Nc1nccc(-c2cccc(Cl)c2)n1)c1ccc(Oc2cc3c(cc2Cl)C(C(=O)O)CCO3)cc1 (centres unmarked) [Example 133, 6-Chloro-7-(4-(4-(3-chlorophenyl)pyrimidin-2-ylcarbamoyl)phenoxy)chroman-4-carboxylic acid] | 261 | –
O=C(Nc1nnc(-c2ccccc2)s1)c1ccc(Oc2cc3c(cc2Cl)C(C(=O)O)CCO3)cc1 (centres unmarked) [Example 148, 6-chloro-7-(4-(5-phenyl-1,3,4-thiadiazol-2-ylcarbamoyl)phenoxy)chroman-4-carboxylic acid] | 5460 | –
N#Cc1cc2c(cc1Oc1ccc(C(=O)Nc3cccc(-c4ccc5c(c4)CCO5)n3)cc1)OCCC2C(=O)O (centres unmarked) [Example 43, 6-Cyano-7-(4-(6-(2,3-dihydrobenzofuran-5-yl)pyridin-2-ylcarbamoyl)-phenoxy)chroman-4-carboxylic acid] | 291 | –
Cc1cc2ccccc2nc1NC(=O)c1ccc(Oc2cc3c(cc2Cl)C(C(=O)O)CCO3)cc1 (centres unmarked) [Example 26, 6-Chloro-7-(4-(3-methylquinolin-2-ylcarbamoyl)phenoxy)chroman-4-carboxylic acid] | 1910 | –
COc1ccc(-c2cccc(NC(=O)c3ccc(Oc4cc5c(cc4Cl)C(C(=O)O)CCO5)cc3)n2)cc1 (centres unmarked) [Example 58, 6-Chloro-7-(4-(6-(4-methoxyphenyl)pyridin-2-ylcarbamoyl)phenoxy)chroman-4-carboxylic acid] | 67 | –
N#Cc1cc2c(cc1Oc1ccc(C(=O)Nc3nnc(-c4ccc(Cl)cc4)s3)cc1)OCCC2C(=O)O (centres unmarked) [Example 204, 7-(4-(5-(4-chlorophenyl)-1,3,4-thiadiazol-2-ylcarbamoyl)phenoxy)-6-cyanochroman-4-carboxylic acid] | 3440 | –
CC(C)Cc1cccc(NC(=O)c2ccc(Oc3cc4c(cc3Cl)C(C(=O)O)CCO4)cc2)n1 (centres unmarked) [Example 105, 6-Chloro-7-(4-(6-isobutylpyridin-2-ylcarbamoyl)phenoxy)chroman-4-carboxylic acid] | 133 | –
O=C(Nc1cccc(-c2ccc(Cl)cc2)n1)c1ccc(Oc2c(Cl)cc3c(c2Br)OCCC3C(=O)O)cc1 (centres unmarked) [Example 106, Sodium 8-bromo-6-chloro-7-(4-(6-(4-chlorophenyl)pyridin-2-ylcarbamoyl)phenoxy)chroman-4-carboxylate] | 87.7 | –
N#Cc1cc2c(cc1Oc1ccc(C(=O)Nc3nc4ccc(C(F)(F)F)cc4s3)cc1)OCCC2C(=O)O (centres unmarked) [Example 201, 6-cyano-7-(4-(6-(trifluoromethyl)benzo[d]thiazol-2-ylcarbamoyl)phenoxy)chroman-4-carboxylic acid] | 355 | 5.1
O=C(Nc1nc2ccc(C(F)(F)F)cc2s1)c1ccc(Oc2cc3c(cc2Cl)C(C(=O)O)CCO3)cc1 (centres unmarked) [Example 183, 6-Chloro-7-(4-(6-(trifluoromethyl)benzo[d]thiazol-2-ylcarbamoyl)phenoxy)chroman-4-carboxylic acid] | 45.8 | –
